Where two headings read alike, the source gives them in different places.
Experiments:
proximal tubular cells = settings: for cell death: wild type proximal tubular cells, 24 hours
Method: To determine if CHOP played a role in ER stress induced renal cell death, primary proximal tubular cells were isolated from 2 month-old CHOP^−/− and wild type mice using a method described by Sheridan et al. (Am J Physiol 1993, 265:F342-350). Briefly, kidneys were perfused with a phosphate buffer solution and dynabead M-450 (5×10^5 beads/ml, Invitrogen, LA, CA). Cortices were then cut to small pieces and incubated with 0.1% collagenase and 100 u/ml DNase at 37° C. for 40 minutes. After pressing tissues through a 100 μm cell strainer (BD Biosciences, Bedford, Mass.) with a syringe plunger, glomeruli were removed by a magnetic concentrator. The remaining tissues were collected with a 40 μm cell strainer, washed and cultured with medium containing DMEM/F12 (1:1), 5 μg/ml transferrin, 5 μg/ml insulin, 50 nM hydrocortisone, 5% FBS, 100 u/ml each of penicillin and streptomycin. […] […] 24 hours later, cells were gently washed and stained with trypan blue, the number of live cells from each well was counted.

MMP-2 = test: Zymography of U937 cell supernatants, MMP-2; format: cell-based, human; settings: U937 cells, heparin 100 μg/ml
Method: Human pro-monocytic U937 cells were obtained from American Type Culture Collection (Manassas, Va.) and grown in RPMI medium supplemented with 10% FBS. U937 cells were plated in six-well plates at a density of 5×10^6 cells/ml. The cells were then stimulated with 10 ng/ml TNF-α, in the presence or absence of either increasing concentrations of PPS (10-100 μg/ml) or heparin (100 μg/ml), and incubated at 37° C. for 3 hours. Following stimulation, cells were placed in 0.1% BSA-serum-free medium for 16-18 hours. The media was then collected, centrifuged, and supernatants were stored at −80° C. for the assessment of MMP activity. The cell number was determined by direct cell counting.
MMP activity in aortic extracts and conditioned media from monocytes was assessed, as previously described (Jacot T A, et al., Lab Invest. 1996; 75:791-79). Briefly, aortic segments were homogenized and extracted in RIPA buffer (25 mM Tris, pH 7.4, 150 mM KCl, 5 mM EDTA, 1% Nonidet P-40, 0.5% sodium deoxycholate, and 0.1% SDS). Insoluble material was precipitated by centrifugation, and soluble extracts were collected and stored at −20° C. for further analysis. For in vitro experiments, cell supernatants were centrifuged to remove cellular debris, and diluted appropriately to normalize for cell number. Aortic extracts and conditioned media were then mixed with sample buffer (1% SDS, 0.08 M Tris pH 6.8, 4% glycerol, and 0.006% bromophenol blue), and loaded onto a 10% gelatin polyacrylamide gel, and processed as described (Jacot T A, et al., Lab Invest. 1996; 75:791-79). For reverse zymography, samples were loaded onto a 15% gelatin polyacrylamide gel containing 0.5% porcine gelatin and 6 μg recombinant gelatinase A, and processed as described (Elliot S J, et al., J Am Soc Nephrol. 1999; 10: 62-68).

[1] = test system: MCP-1, RANTES, CXCL1, MIP-2, ICAM-1, and iNOS mRNA; test: TNFα induced pro-inflammatory gene expression in proximal tubular cell line, real-time PCR; format: cell-based, mouse; settings: TNFα 10 ng/ml, 4 hours, control defined as 1
Method: A proximal tubular cell line obtained from mice transgenic for SV40 T antigen was grown in DMEM containing 10% FBS. For the measurement of TNFα-stimulated gene expression, 1×10^5 proximal tubular cells were transferred to each well of a 6-well-plate. After placing the cells in 0.1% FBS medium for 24 hours, 10 ng/ml of TNFα was added to test wells. Total RNA was isolated from all wells 4 hours later. MCP-1, RANTES, CXCL1, MIP-2, ICAM-1, and iNOS mRNA levels were determined by real-time PCR as described above and corrected by β-actin mRNA levels. TNFα stimulated MCP-1 and RANTES production and release into the medium was measured in TNFα (10 ng/ml) treated and control cells at 24 hours. The amount of MCP-1 or RANTES in the medium was measured by ELISA (Invitrogen Corporation (Carlsband, Calif.).
To determine the effect of PPS on TNFα induced upregulation of proinflammatory genes, proximal tubular cells were pre-treated with PPS (200 μg/ml) for 1 hour before the addition of TNFα (10 ng/ml). MCP-1, RANTES, CXCL1, MIP-2, ICAM-1, and iNOS mRNA levels were determined 4 hours later by real-time PCR. MCP-1 and RANTES production was also measured.

podocytes = test: Albumin permeability of podocyte monolayers (FITC-labeled BSA flux); format: cell-based; settings: 2 hours after TNFα treatment (20 ng/ml)
Method: 1×10^5 podocytes were seeded onto collagen-coated transwell filters ([…] pore-size, Corning, N.Y., N.Y.) placed in the top chamber of each well of a 24-well plate. After cells reached confluence, some wells of cells were treated with TNFα (20 ng/ml), PPS (400 μg/ml), or PPS plus TNFα in 2% FBS medium for 8 hours. Then the medium from both the top and bottom chamber was completely removed, cells were washed twice with PBS and the top chamber was refilled with 0.2 ml 2% FBS medium supplemented with 0.5 mg/ml FITC-labeled BSA (Sigma Aldrich, St Louis, […].), while the bottom chamber was refilled with 0.6 ml 2% FBS medium supplemented with 0.5 mg/ml unlabeled BSA. At different time points, 100 μl aliquots were collected from the bottom chamber and fluorescence was measured by a fluorescence spectrophotometer (485 nm excitation, 535 nm emission). The concentration of FITC-BSA passing through the monolayer was determined by reference to a set of standard dilutions of FITC-BSA. The value of albumin flux through untreated monolayer was arbitrarily defined as 100%.

With `OO` [H2O2, hydrogen peroxide] the apoptotic cell death (proximal tubular cells) was “dose dependent increase”.
tunicamycin was tested, and the apoptotic cell death (proximal tubular cells; proximal tubular cells exposed to inducers of oxidative stress or ER stress) was “dose dependent increase”, the cell death (proximal tubular cells; 0.6 μg/ml of tunicamycin) was 38% and the cell death (proximal tubular cells; 1.2 μg/ml of tunicamycin) was 89%.
With heparin the “effect of heparin treatment on MMP-2 activity compared with the PPS effect” value (MMP-2) was “comparable”.
With TNFα the “fold increase in mRNA expression of MCP-1, RANTES, CXCL-1, MIP-2, ICAM-1 and iNOS” value [1] was 2-9 fold and the “increase in the amount of FITC-labeled albumin that passed through a monolayer of podocytes” value (podocytes) was 34%.

From patent US8871741B2, “Inhibition of TNF-α induced activation of NFKB by pentosan polysulfate” (Icahn School of Medicine at Mount Sinai, priority 2010, dated 2014)
